This note sets out measurements from ChEMBL document CHEMBL1641526, “Structure-activity relationship (SAR) of the α-amino acid residue of potent tetrahydroisoquinoline (THIQ)-derived LFA-1/ICAM-1 antagonists” (Bioorg Med Chem Lett, 2011).

pIC50: −log10 of the molar value.

For data set [1], the target named is T1, Intercellular adhesion molecule (ICAM-1), Integrin alpha-L/beta-2 (Homo sapiens, UniProt P05107+P05362+P20701). As to the kind of experiment: Inhibition of LFA1/ICAM1 interaction in human Hut-78 cells in presence of 10% human serum. Type of data set: cell-based.
T1 sequence (P20701 whole entry): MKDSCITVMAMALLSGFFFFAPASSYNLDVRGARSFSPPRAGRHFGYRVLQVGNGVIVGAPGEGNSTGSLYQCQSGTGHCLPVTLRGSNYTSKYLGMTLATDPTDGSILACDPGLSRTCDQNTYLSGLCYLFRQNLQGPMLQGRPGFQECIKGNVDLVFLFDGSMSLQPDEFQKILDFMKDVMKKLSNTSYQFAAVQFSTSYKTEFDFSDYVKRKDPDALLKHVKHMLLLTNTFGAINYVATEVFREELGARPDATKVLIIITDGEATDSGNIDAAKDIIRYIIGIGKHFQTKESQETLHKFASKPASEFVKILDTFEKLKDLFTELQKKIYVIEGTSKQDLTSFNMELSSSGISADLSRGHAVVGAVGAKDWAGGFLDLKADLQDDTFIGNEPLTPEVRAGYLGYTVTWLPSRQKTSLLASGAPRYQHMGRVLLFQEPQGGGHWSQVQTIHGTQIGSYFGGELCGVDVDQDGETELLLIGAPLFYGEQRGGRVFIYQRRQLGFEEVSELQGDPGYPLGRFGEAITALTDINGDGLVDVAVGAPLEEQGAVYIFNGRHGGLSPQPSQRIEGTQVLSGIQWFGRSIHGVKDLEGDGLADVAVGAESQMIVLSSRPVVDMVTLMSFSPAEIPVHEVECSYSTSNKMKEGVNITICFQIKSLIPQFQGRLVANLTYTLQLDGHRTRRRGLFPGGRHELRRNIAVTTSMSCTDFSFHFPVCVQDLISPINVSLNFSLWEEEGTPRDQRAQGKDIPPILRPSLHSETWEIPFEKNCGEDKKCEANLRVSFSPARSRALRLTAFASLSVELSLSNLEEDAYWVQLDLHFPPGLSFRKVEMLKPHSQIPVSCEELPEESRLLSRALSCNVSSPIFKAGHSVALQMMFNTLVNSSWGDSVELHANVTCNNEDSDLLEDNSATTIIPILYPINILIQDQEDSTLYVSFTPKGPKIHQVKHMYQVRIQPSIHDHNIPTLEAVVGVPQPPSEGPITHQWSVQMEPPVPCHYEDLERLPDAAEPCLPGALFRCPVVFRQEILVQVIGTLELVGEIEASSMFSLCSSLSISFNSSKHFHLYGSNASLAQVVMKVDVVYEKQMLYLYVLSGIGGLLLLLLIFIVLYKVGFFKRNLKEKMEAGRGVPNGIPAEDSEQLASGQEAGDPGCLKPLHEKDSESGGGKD
T1 sequence (P05362 whole entry): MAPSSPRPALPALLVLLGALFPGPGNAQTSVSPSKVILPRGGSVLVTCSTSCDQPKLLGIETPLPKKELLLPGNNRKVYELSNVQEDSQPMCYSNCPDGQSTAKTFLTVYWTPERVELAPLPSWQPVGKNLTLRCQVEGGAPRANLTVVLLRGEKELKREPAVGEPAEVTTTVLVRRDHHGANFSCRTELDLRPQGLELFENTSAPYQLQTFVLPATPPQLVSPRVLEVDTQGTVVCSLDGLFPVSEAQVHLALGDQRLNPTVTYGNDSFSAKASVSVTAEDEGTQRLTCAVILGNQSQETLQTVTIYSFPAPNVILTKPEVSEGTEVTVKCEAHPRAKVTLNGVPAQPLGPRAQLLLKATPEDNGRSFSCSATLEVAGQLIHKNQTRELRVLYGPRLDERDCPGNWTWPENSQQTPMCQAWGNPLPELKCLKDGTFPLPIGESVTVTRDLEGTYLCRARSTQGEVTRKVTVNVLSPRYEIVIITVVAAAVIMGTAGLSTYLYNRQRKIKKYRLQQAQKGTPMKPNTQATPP
T1 sequence (P05107 whole entry): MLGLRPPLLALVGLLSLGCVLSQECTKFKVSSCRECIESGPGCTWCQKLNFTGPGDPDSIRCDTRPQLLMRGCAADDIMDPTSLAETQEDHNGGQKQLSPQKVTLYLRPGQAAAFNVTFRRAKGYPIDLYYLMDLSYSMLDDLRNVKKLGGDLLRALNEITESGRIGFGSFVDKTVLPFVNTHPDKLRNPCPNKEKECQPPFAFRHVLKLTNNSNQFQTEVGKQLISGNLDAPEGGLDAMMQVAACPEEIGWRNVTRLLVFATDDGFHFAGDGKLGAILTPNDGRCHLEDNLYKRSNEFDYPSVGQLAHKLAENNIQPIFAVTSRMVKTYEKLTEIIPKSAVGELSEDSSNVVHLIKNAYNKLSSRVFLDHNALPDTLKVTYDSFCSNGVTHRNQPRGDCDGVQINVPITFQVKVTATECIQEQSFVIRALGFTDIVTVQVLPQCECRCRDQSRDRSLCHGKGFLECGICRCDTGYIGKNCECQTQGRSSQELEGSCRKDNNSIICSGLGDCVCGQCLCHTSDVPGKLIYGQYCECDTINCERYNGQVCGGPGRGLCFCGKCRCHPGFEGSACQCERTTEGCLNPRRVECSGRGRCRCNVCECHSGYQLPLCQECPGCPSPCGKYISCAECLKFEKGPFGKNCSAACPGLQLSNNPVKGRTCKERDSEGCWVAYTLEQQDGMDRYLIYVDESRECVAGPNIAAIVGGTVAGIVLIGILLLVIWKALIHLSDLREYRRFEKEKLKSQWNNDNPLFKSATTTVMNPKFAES
Data set [2] deals with T1, Intercellular adhesion molecule (ICAM-1), Integrin alpha-L/beta-2. Put plainly: Inhibition of LFA1/ICAM1 interaction in human Hut-78 cells. It is filed as cell-based.
Data set [3] in a line: AUC in Sprague-Dawley rat at 5 mg/kg administered as single dose. Type of data set: ADME, organism-based. On the set-up: dose 5 mg/kg. As to conditions: plasma.
Data set [4] is described as follows: Metabolic stability in human liver microsomes after 30 mins by LC/MS analysis. It is filed as ADME, Microsome. The note with it: read-out: Stability.
The nature of data set [5]: Half life in Sprague-Dawley rat at 5 mg/kg administered as single dose. It is filed as ADME, organism-based. Further details: dose 5 mg/kg. The note with it: in vivo.
Data set [6] in a line: Clearance in Sprague-Dawley rat at 5 mg/kg administered as single dose. As to conditions: in vivo. On the set-up: dose 5 mg/kg. Type of data set: ADME, organism-based.
Data set [7] can be described thus: Metabolic stability in Sprague-Dawley rat liver microsomes after 30 mins by LC/MS analysis. Type of data set: ADME, Microsome. As to conditions: read-out: Stability.

In the case of `O=C(NC[C@H](NC(=O)c1c(Cl)cc2c(c1Cl)CCN(C(=O)c1ccc(Cl)cc1)C2)C(=O)O)c1cccs1`, the pIC50 in data set [1] is 5.82.

In the case of `O=C(NC[C@H](NC(=O)c1c(Cl)cc2c(c1Cl)CCN(C(=O)c1ccc3ccoc3c1)C2)C(=O)O)c1cccs1`, the pIC50 in data set [1] was 6.02; in data set [2], 8.30.

`CCOC(=O)[C@H](CNC(=O)c1cccs1)NC(=O)c1c(Cl)cc2c(c1Cl)CCN(C(=O)c1ccc3ccoc3c1)C2`: the pIC50 in data set [1] is 6.02.

For the molecule `CS(=O)(=O)c1ncc(C[C@H](NC(=O)c2c(Cl)cc3c(c2Cl)CCN(C(=O)c2ccc4ccoc4c2)C3)C(=O)O)[nH]1`, the values for the pIC50 in data set [1] and in data set [2] were 6.25 and 7.52, respectively.

In data set [2], `CC(=O)n1cc(C[C@H](NC(=O)c2c(Cl)cc3c(c2Cl)CCN(C(=O)c2ccc(Cl)cc2)C3)C(=O)O)c2ccccc21` showed a negative-log IC50 (pIC50) of 6.09.

As for `CS(=O)(=O)n1cc(C[C@H](NC(=O)c2c(Cl)cc3c(c2Cl)CCN(C(=O)c2ccc(Cl)cc2)C3)C(=O)O)c2ccccc21`, the pIC50 is 4.60 in data set [1] and 7.00 in data set [2].

In turn, `NS(=O)(=O)n1cc(C[C@H](NC(=O)c2c(Cl)cc3c(c2Cl)CCN(C(=O)c2ccc(Cl)cc2)C3)C(=O)O)c2ccccc21` showed a pIC50 in data set [2] of under 6.00.

For the molecule `Cc1cccc2c1c(C[C@H](NC(=O)c1c(Cl)cc3c(c1Cl)CCN(C(=O)c1ccc(Cl)cc1)C3)C(=O)O)cn2S(C)(=O)=O`, in data set [2], the negative-log IC50 (pIC50) is under 6.00.

As to `Cc1ccc2c(c1)c(C[C@H](NC(=O)c1c(Cl)cc3c(c1Cl)CCN(C(=O)c1ccc(Cl)cc1)C3)C(=O)O)cn2S(C)(=O)=O`, the pIC50 in data set [1] is 4.96; in data set [2] it was 7.59.

`Cc1ccc2c(C[C@H](NC(=O)c3c(Cl)cc4c(c3Cl)CCN(C(=O)c3ccc(Cl)cc3)C4)C(=O)O)cn(S(C)(=O)=O)c2c1`: the pIC50 was 4.60 in data set [1] and 7.41 in data set [2].

For the molecule `Cc1cccc2c(C[C@H](NC(=O)c3c(Cl)cc4c(c3Cl)CCN(C(=O)c3ccc(Cl)cc3)C4)C(=O)O)cn(S(C)(=O)=O)c12`, the pIC50 in data set [1] is 4.60; in data set [2], 6.85.

Turning to `O=C(N[C@@H](Cc1c[nH]cn1)C(=O)O)c1c(Cl)cc2c(c1Cl)CCN(C(=O)c1ccc(Cl)cc1)C2`, in data set [2], the pIC50 was 6.37.

In data set [2], `Cn1cnc(C[C@H](NC(=O)c2c(Cl)cc3c(c2Cl)CCN(C(=O)c2ccc(Cl)cc2)C3)C(=O)O)c1` had a pIC50 of 6.25.

On to `CC(C)n1cnc(C[C@H](NC(=O)c2c(Cl)cc3c(c2Cl)CCN(C(=O)c2ccc(Cl)cc2)C3)C(=O)O)c1`, for which the pIC50 in data set [2] is 6.77.

In turn, `O=C(N[C@@H](Cc1cn(-c2ccccc2)cn1)C(=O)O)c1c(Cl)cc2c(c1Cl)CCN(C(=O)c1ccc(Cl)cc1)C2` had a negative logarithm of the IC50 (pIC50) in data set [2] of under 6.00.

Regarding `CC(C)n1cc(C[C@H](NC(=O)c2c(Cl)cc3c(c2Cl)CCN(C(=O)c2ccc(Cl)cc2)C3)C(=O)O)nn1`, the pIC50 in data set [1] was 6.00; in data set [2] it was 7.23. The exposure (AUC) in data set [3] was determined as 1410 ng·h/mL. In addition, the remaining at 0.5 h in data set [4] is 92%. Moreover, in data set [5], the half-life was 138 min. In data set [6], this molecule came in with a clearance of over 60 mL/min/kg.

`CC(C)c1cn(C[C@H](NC(=O)c2c(Cl)cc3c(c2Cl)CCN(C(=O)c2ccc(Cl)cc2)C3)C(=O)O)nn1` gave a pIC50 in data set [2] of 6.51.

The molecule `CC(C)c1cc(C[C@H](NC(=O)c2c(Cl)cc3c(c2Cl)CCN(C(=O)c2ccc(Cl)cc2)C3)C(=O)O)[nH]n1` showed a pIC50 in data set [2] of 6.60.

In turn, `CC(C)c1cnc(C[C@H](NC(=O)c2c(Cl)cc3c(c2Cl)CCN(C(=O)c2ccc(Cl)cc2)C3)C(=O)O)s1` had a pIC50 in data set [2] of under 6.00.

Consider `CC(C)n1cc(C[C@H](NC(=O)c2c(Cl)cc3c(c2Cl)CCN(C(=O)c2cc4ccccc4o2)C3)C(=O)O)nn1`, for which the pIC50 in data set [1] is 6.72; in data set [2] it was 8.30.

Turning to `CC(C)n1cc(C[C@H](NC(=O)c2c(Cl)cc3c(c2Cl)CCN(C(=O)c2ccc4ccoc4c2)C3)C(=O)O)nn1`, the remaining at 0.5 h was over 95% in data set [7] and 86% in data set [4]. Also, the pIC50 in data set [1] is 6.02; in data set [2], 7.72. For the same molecule, the exposure (AUC) in data set [3] worked out at 3680 ng·h/mL. The same molecule gave a half-life in data set [5] of 58.2 min. In addition, the clearance in data set [6] turned out to be 26 mL/min/kg.

With `CC(C)n1cc(C[C@H](NC(=O)c2c(Cl)cc3c(c2Cl)CCN(C(=O)c2cc4ccccn4n2)C3)C(=O)O)nn1`, the negative logarithm of the IC50 (pIC50) is 6.59 in data set [1] and 8.15 in data set [2].

With `CS(=O)(=O)c1ccc(C[C@H](NC(=O)c2c(Cl)cc3c(c2Cl)CCN(C(=O)c2ccc4ccoc4c2)C3)C(=O)O)o1`, the remaining at 0.5 h is over 65% in data set [7] and over 95% in data set [4]. Further, the pIC50 in data set [1] was 7.02; in data set [2], 8.92. In addition, the AUC in data set [3] came out at 1510 ng·h/mL. In addition, in data set [5], the half-life was 25.8 min. In addition, the clearance in data set [6] came to 60 mL/min/kg.

Molecule `CS(=O)(=O)c1ccc(C[C@H](NC(=O)c2c(Cl)cc3c(c2Cl)CCN(C(=O)c2ccc4ccoc4c2)C3)C(=O)O)s1` gave a pIC50 in data set [2] of 6.82.

Molecule `CS(=O)(=O)N1CCC(C[C@H](NC(=O)c2c(Cl)cc3c(c2Cl)CCN(C(=O)c2ccc4ccoc4c2)C3)C(=O)O)C1` (stereo not given in full) gave a pIC50 in data set [2] of 6.00.
